According to patent US8916540B2, “Antibiotic compositions and related screening methods” (Academia Sinica, priority 2008, dated 2014):
Values after ≈ are worked out from the molar mass of the structure shown. Where two headings read alike, the source gives them in different places.

How the values were obtained:
[1] = tested on: Bacillus subtilis; assay: Minimal inhibitory concentration (MIC) determination; type: cell-based; details: Bacillus subtilis
Method: (§1) The minimal inhibitory concentration (MIC) of tested compounds was determined following the NCCLS standard. The experiments were conducted in 96-well microtiter plates using two-fold dilutions in Muller-Hilton broth with (Streptococcus pneumonia) or without blood (Bacillus subtilis, Enterococcus faecalis, Staphylococcus aureus). Exponentially growing cells at 5×10^5 cells/ml were incubated with test compounds at various concentrations.

[2] = tested on: Enterococcus faecalis; assay: as above; type: cell-based; details: Enterococcus faecalis
Method: as §1

[3] = tested on: Staphylococcus aureus; assay: as above; type: cell-based; details: Staphylococcus aureus
Method: as §1

[4] = tested on: Streptococcus pneumoniae; assay: as above; type: cell-based; details: Streptococcus pneumoniae
Method: as §1

[5] = molecular target: T1, H. pylori PBP1a (Helicobacter pylori, UniProt O25319, /I22V/I24V/I79V/M17V/S417T/V16I, form not given); type: binding; details: read-out: IC50 (fluorescence anisotropy assay, displacement of F-Moe); 100 nM F-Moe, 10 μg/ml H. pylori PBP1a, 10 mM Tris pH 8.0, 100 mM NaCl
T1 sequence (O25319 1-659 V16I/M17V/I22V/I24V/G44S/I79V/I101V/F125L/G242S/E323D/D336E/E406V/S417T/D508E): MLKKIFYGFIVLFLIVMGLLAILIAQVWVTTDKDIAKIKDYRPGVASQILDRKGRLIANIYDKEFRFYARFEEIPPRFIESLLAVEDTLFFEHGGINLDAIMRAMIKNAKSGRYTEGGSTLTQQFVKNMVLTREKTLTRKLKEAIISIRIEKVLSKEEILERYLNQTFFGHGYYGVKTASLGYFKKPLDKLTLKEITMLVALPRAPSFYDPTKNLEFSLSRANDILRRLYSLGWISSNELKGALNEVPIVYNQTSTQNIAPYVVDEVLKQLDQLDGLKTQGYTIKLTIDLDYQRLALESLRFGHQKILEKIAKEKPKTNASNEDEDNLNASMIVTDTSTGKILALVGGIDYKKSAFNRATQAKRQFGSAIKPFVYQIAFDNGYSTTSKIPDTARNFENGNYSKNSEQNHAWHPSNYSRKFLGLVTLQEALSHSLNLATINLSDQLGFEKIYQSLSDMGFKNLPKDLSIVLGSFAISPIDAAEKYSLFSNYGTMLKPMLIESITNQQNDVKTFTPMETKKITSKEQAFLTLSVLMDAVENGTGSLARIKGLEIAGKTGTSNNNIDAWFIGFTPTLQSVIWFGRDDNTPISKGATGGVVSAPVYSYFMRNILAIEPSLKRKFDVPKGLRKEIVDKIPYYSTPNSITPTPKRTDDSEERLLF
Method: Fluorescence anisotropy measurements were carried out in triplicates in the wells of 384-well plates using a laser fluorimetry equipped with a 488 nm laser (IsoCyte, Blueshift Biotech, Inc., Sunnyvale, Calif., USA). Various buffers, salts, pH values, and divalent cations (Ca^++, Mg^++, Co^++) were optimized for fluorescence anisotropy measurements. […] The scanning focus was above the plate bottom to avoid detection interferences. Data analysis was performed with the proprietary software, BlueImage (Blueshift Biotech Inc). Fluorescence anisotropy values (A) were calculated using the equation: A=(/∥−G*/⊥)/(/∥+2G*/⊥), where /∥ is the fluorescence intensity of emitted light parallel to excitation, /⊥ is the fluorescence intensity of emitted light perpendicular to excitation, and G is the […] that corrects for instrument bias. The G factor is experimentally determined for each run using the probe-only well as the basal an isotropy.
For the development of an assay for inhibitor screening, F-Moe was pre-incubated with H. pylori PBP1a and then competed with unlabeled Moe A at various concentrations.
For displacement assay, the initial condition contained 40 μl of 100 nM F-Moe, 10 μg/ml H. pylori PBP1a in 10 mM Tris, pH 8.0, 100 mM NaCl. Aliquots of compound stock solution were added and the anisotropy was monitored after 5 minutes of equilibration. The data from the displacement assay was used to calculate the inhibition constant (KI) and IC50 value of an inhibitor using the complete competitive binding model
[formula] The KI value was determined by plotting the total inhibitor concentration (C) versus the molar ratio of bound/free F-Moe and fitting the resulting curve to [Eq. 2], C=[(KI/KD*X)+1][RT−(LST*X)/(X+1)−KD*X [Eq. 2] […] The reported value is the average of four different runs.
For IC50 determination, the fraction of bound fluorescent probe is plotted versus the log value of the competitor concentration (C).

[6] = B. subtilis ATCC23857, Muller-Hilton broth, 18 h to 24 h, 37° C., read-out: MIC B. subtilis (ATCC23857)
[7] = E. faecalis ATCC29212, Muller-Hilton broth, 18 h to 24 h, 37° C., read-out: MIC E. faecalis (ATCC29212)
[8] = S. aureus ATCC29213, Muller-Hilton broth, 18 h to 24 h, 37° C., read-out: MIC S. aureus (ATCC29213)
[9] = S. pneumoniae ATCC49619, Muller-Hilton broth with blood, 18 h to 24 h, 37° C., read-out: MIC S. pneumoniae (ATCC49619)

SMILES	MIC [1, 6] [µM]	MIC [2, 7] [µM]	MIC [3, 8] [µM]	MIC [4, 9] [µM]	IC50 [5] [µM]	MIC ([1]; ATCC23857, read-out: MIC B. subtilis (ATCC23857)) [µM]	MIC ([2]; ATCC29212, read-out: MIC E. faecalis (ATCC29212)) [µM]	MIC ([3]; ATCC29213, read-out: MIC S. aureus (ATCC29213)) [µM]	MIC ([4]; ATCC49619, read-out: MIC S. pneumoniae (ATCC49619)) [µM]
C=C(CC=C(C)CCC=C(C)C)CCC(C)(C)C=CCCC(C)=CCOC(COP(=O)(O)OC1OC(C(N)=O)C(C)(O)C(OC(N)=O)C1OC1OC(COC2OC(CO)C(O)C(O)C2O)C(OC2OC(C)C(OC3OC(c4nc(C(=O)CCC(=O)O)nn4-c4ccc([N+](=O)[O-])c(C(=O)NCCN)c4)C(O)C(O)C3O)C(O)C2NC(C)=O)C(O)C1NC(C)=O)C(=O)O (stereo not drawn) [Compound 2]	2.5 (≈ 4.54 µg/mL)	10 (≈ 18.2 µg/mL)	1.25 (≈ 2.27 µg/mL)	20 (≈ 36.4 µg/mL)	2.1				
C=C(CC=C(C)CCC=C(C)C)CCC(C)(C)C=CCCC(C)=CCOC(COP(=O)(O)OC1OC(C(N)=O)C(C)(O)C(OC(N)=O)C1OC1OC(COC2OC(CO)C(O)C(O)C2O)C(OC2OC(C)C(OC3OC(c4nc(C(=O)CCC(=O)O)nn4-c4ccc([N+](=O)[O-])c(C(=O)NCCNC(=O)CCCCCCC(=O)NCCNC(=O)c5cc(-n6nc(C(=O)CCC(=O)O)nc6C6OC(OC7C(C)OC(OC8C(COC9OC(CO)C(O)C(O)C9O)OC(OC9C(OP(=O)(O)OCC(OCC=C(C)CCC=CC(C)(C)CCC(=C)CC=C(C)CCC=C(C)C)C(=O)O)OC(C(N)=O)C(C)(O)C9OC(N)=O)C(NC(C)=O)C8O)C(NC(C)=O)C7O)C(O)C(O)C6O)ccc5[N+](=O)[O-])c4)C(O)C(O)C3O)C(O)C2NC(C)=O)C(O)C1NC(C)=O)C(=O)O (stereo not drawn) [Compound 4]					0.92	1.25 (≈ 4.72 µg/mL)	5 (≈ 18.9 µg/mL)	0.625 (≈ 2.36 µg/mL)	20 (≈ 75.5 µg/mL)
O=C1OC(c2ccc(Br)cc2)=C/C1=C/c1ccc([N+](=O)[O-])o1 [Compound 6, (Z)-5-(4-bromophenyl)-3-((5-nitrofuran-2-yl)methylene)furan-2(3H)-one]	0.25 (≈ 0.0905 µg/mL)	0.25 (≈ 0.0905 µg/mL)	1 (≈ 0.362 µg/mL)	4 (≈ 1.45 µg/mL)	34				
O=C1/C(=N\Nc2nccs2)C(c2ccccc2)=NN1c1ccccc1 [Compound 7]	0.25 (≈ 0.0869 µg/mL)	1 (≈ 0.347 µg/mL)	4 (≈ 1.39 µg/mL)		3.7				
C/C(=C\c1ccc(C(=O)O)cc1)c1ccc2c(c1)C(C)(C)CCC2(C)C [Compound 8, (E)-4-(2-(5,5,8,8,-tetramethyl-5,6,7,8-tetrahydronaphthalen-2-yl)prop-1-enyl)benzoic acid]	4 (≈ 1.39 µg/mL)	> 4	> 4	> 4	9.3				
